Patent US8993544B2, “Carbamoylphosphonates as inhibitors and uses thereof” (priority 2009, dated 2015)
Where two headings read alike, the source gives them in different places.

Tests used:
[1] = biological target: T1, TACE (Homo sapiens, UniProt P78536); test: Determination of inhibitory potency, TACE; format: biochemical
T1 construct: purchased R&D Systems, Minneapolis
Experimental: (§1) Recombinant enzymes, human MMP-1, MMP-2, MMP-3, MMP-8, MMP-9, MMP-12, MMP-13 and TACE (R&D Systems, Minneapolis) were incubated at four different concentrations with the relevant colorimetric or fluorescent peptide substrates (R&D Systems, Minneapolis) for 3 h. The tested compounds were added at four to six different concentrations and the inhibitory potencies expressed in a colorimetric change, was measured by an ELISA or fluorimeter.

[2] = biological target: T2, human MMP-13 (Homo sapiens, UniProt P45452); test: Determination of MMP inhibitory potency, MMP-13; format: biochemical
T2 construct: purchased R&D Systems, Minneapolis
Experimental: as §1

[3] = biological target: T3, human MMP-8 (Homo sapiens, UniProt P22894); test: Determination of MMP inhibitory potency, MMP-8; format: biochemical
T3 construct: purchased R&D Systems, Minneapolis
Experimental: as §1

[4] = tested on: MMP and/or ADAM enzyme; test: Duration of inhibitory effect on the enzymes inhibited; format: biochemical, human
Experimental: Previously, it has been established that cis-2-aminocyclohexycarbamoyl phosphonic acid (cis-ACCP), listed for the purpose of comparison in Tables 2 and 3 as “control”, was an effective nontoxic, in vivo active antimetastatic compound. […] In the study leading to the subject invention, it was determined that the inhibitory effect could be, and in fact was prolonged by substituting carbamoylphosphonic functionality with aromatic ring functionality as in the compounds of the invention. […]
as §1

[5] = biological target: T4, MMP-2 (Homo sapiens, UniProt P08253); test: Determination of MMP inhibitory potency, MMP-2; format: biochemical; design: purchased R&D Systems, Minneapolis
T4 sequence (P08253 110-660): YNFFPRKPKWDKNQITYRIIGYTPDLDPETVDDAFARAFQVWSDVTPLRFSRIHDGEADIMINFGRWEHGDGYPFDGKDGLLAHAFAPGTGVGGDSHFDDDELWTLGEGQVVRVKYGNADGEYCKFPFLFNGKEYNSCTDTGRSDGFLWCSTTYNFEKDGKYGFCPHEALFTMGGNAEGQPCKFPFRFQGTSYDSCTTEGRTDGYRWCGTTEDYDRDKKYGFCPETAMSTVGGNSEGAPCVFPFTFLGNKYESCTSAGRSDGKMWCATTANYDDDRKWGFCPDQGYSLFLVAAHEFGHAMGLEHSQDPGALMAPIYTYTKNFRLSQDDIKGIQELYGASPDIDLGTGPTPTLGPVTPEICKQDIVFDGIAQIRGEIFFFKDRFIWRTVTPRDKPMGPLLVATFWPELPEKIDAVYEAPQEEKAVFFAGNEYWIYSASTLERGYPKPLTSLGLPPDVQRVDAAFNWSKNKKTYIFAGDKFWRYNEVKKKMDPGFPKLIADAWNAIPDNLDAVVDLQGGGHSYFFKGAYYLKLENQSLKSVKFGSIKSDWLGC
Experimental: as §1

[6] = biological target: T5, human MMP-3 (Homo sapiens, UniProt P08254); test: Determination of MMP inhibitory potency, MMP-3; format: biochemical
T5 construct: purchased R&D Systems, Minneapolis
Experimental: as §1

[7] = biological target: T6, human MMP-12 (Homo sapiens, UniProt P39900); test: Determination of MMP inhibitory potency, MMP-12; format: biochemical
T6 construct: purchased R&D Systems, Minneapolis
Experimental: as §1

[8] = biological target: T7, human MMP-9 (Homo sapiens, UniProt P14780); test: Determination of MMP inhibitory potency, MMP-9; format: biochemical
T7 construct: purchased R&D Systems, Minneapolis
Experimental: as §1

[9] = tested on: B16F10 tumor cells; test: Murine melanoma model of experimental metastasis; format: in vivo, C57B1 mice; conditions: for % reduction in lung metastases relative to control: daily for three weeks, B16F10 cells i.v.
[10] = tested on: tumor invasion; test: In vitro model of tumor invasion (Boyden chamber, reconstituted basement membrane); format: cell-based; conditions: read-out: % Invasion-Inhibition by 50 μM drug
Experimental: The compound was also evaluated in an in vivo experimental model of metastasis using B16F10 tumor cells in C57B1 mice. […] The assay was carried out in a Boyden chamber with a reconstituted basement membrane (Matrigal).

[11] = biological target: T4, MMP-2; test: Time dependent inhibition of MMP-2 (period of inhibition); format: biochemical
[12] = mouse, in vivo

T6 sequence (P39900 106-470): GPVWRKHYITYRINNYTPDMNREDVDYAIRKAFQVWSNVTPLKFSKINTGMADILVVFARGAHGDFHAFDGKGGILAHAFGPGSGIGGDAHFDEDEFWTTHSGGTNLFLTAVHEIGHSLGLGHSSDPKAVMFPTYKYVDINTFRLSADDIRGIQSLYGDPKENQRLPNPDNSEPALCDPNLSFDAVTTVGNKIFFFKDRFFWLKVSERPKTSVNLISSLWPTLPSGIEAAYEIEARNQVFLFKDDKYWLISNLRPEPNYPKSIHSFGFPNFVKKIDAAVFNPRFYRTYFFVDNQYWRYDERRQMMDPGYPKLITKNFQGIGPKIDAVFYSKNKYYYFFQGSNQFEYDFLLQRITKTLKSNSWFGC
T1 sequence (P78536 215-824): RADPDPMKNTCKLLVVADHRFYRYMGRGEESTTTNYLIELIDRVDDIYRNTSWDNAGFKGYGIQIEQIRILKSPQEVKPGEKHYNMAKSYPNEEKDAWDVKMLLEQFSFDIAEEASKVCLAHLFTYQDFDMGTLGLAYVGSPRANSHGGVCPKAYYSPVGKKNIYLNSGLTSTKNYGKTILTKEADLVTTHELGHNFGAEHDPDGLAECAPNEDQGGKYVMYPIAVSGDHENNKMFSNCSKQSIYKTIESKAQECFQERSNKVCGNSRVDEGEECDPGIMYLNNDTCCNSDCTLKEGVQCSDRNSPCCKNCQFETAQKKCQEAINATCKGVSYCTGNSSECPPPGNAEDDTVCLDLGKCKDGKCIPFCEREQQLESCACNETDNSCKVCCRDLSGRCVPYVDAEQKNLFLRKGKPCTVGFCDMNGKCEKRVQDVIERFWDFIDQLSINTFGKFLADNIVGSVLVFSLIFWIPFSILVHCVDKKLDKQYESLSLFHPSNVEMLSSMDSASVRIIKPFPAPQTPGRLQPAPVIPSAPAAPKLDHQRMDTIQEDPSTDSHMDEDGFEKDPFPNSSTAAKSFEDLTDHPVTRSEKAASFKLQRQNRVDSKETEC
T5 sequence (P08254 100-477): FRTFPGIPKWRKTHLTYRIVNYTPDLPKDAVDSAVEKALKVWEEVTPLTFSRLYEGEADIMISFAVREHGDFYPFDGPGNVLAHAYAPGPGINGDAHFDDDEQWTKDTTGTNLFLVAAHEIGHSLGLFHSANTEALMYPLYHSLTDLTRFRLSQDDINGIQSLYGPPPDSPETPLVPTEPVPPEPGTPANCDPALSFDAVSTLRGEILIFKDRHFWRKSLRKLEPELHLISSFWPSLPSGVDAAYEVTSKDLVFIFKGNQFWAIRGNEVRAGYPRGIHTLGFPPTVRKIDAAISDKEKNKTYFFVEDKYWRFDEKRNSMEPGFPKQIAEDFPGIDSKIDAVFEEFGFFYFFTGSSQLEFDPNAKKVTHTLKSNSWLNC
T3 sequence (P22894 101-467): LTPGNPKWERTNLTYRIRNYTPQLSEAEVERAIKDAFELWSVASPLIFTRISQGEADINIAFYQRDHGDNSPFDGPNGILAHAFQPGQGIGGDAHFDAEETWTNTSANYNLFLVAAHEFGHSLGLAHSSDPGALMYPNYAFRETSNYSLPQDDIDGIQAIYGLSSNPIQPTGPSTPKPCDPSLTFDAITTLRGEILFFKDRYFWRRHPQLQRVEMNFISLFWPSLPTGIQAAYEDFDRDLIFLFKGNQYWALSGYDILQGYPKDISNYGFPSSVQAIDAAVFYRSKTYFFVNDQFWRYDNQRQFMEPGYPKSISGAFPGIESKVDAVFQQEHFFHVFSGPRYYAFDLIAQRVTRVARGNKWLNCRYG
T7 sequence (P14780 94-707): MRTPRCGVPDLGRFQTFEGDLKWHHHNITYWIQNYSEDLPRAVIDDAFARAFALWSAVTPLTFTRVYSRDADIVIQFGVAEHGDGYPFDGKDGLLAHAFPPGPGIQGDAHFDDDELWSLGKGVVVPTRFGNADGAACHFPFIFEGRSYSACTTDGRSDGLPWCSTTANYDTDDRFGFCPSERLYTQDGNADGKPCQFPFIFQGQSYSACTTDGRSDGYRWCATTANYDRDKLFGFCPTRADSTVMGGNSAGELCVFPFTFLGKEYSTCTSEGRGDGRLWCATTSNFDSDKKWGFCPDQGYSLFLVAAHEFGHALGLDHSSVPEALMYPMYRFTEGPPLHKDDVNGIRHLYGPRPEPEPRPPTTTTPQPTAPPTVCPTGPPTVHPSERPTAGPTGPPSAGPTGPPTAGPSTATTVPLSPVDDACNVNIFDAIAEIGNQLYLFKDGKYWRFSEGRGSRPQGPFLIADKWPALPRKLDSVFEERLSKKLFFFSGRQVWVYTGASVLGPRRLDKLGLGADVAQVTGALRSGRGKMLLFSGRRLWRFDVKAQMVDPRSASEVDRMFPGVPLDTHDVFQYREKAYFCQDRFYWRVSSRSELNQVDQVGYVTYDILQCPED

Row | Structure (SMILES) | IC50 ([1]; read-out: IC50 (μM) on TACE) | IC50 ([3]; read-out: IC50 (μM) on MMP-8) | Duration of inhibitory effect [4] | IC50 ([5]; read-out: IC50 (μM) on MMP-2) | IC50 ([8]; read-out: IC50 (μM) on MMP-9) | IC50 ([2]; read-out: IC50 (μM) on MMP-13) | IC50 ([6]; read-out: IC50 (μM) on MMP-3) | IC50 ([7]; read-out: IC50 (μM) on MMP-12) | inhibition at 50 µM [10] | further results
1 | O=C(NCCCCCCCNS(=O)(=O)c1ccc(Oc2ccccc2)cc1)P(=O)(O)O [Compound 6] | 22 µM | > 100 µM | >180 min | > 100 µM | > 100 µM | > 100 µM | > 100 µM | > 100 µM |  | 
2 | O=C(NCCNS(=O)(=O)c1ccc(Oc2ccccc2)cc1)P(=O)(O)O [Compound 1, 1-[4-phenoxybenzenesulfonamido]-2-[phosphonoformamido]ethane] | 6 µM | > 100 µM | >180 min | 15 µM | > 100 µM | 55 µM | > 100 µM | 60 µM | 70% | activity against TACE [1]: moderate activity; activity against MMP-8 [3]: reduced or no activity; inhibition in metastasis formation (number of metastatic foci in the lung) ([9]; B16F10 tumor cells in C57B1 mice): > 80%; activity against MMP-3 [6]: reduced or no activity; activity against MMP-9 [8]: reduced or no activity; period as active inhibitor (time dependent inhibition, FIG. 1) [11]: at least 3 hours
3 | O=C(NCCCCNS(=O)(=O)c1ccc(Oc2ccccc2)cc1)P(=O)(O)O [Compound 3, 1-[4-phenoxybenzenesulfonamido]-4-[phosphonoformamido]butane] | > 100 µM | > 100 µM | >180 min | 7 µM | > 100 µM | 25 µM | > 100 µM | > 100 µM | 60% | melting point: 143 to 145 °C
4 | NC(CNC(=O)P(=O)(O)O)CNS(=O)(=O)c1ccc(Oc2ccccc2)cc1 (racemic) [Compound 8, 2-amino-1-(4-phenoxybenzenesulfonamido)-3-[phosphonoformamido]propane] | 12 µM | 12 µM | >180 min | 15 µM | 12 µM | > 100 µM | > 100 µM | 15 µM |  | duration of affinity to all the enzymes inhibited [4]: > 3 h
5 | O=C(NCCCCCNS(=O)(=O)c1ccc(Oc2ccccc2)cc1)P(=O)(O)O [Compound 4] | > 100 µM | > 100 µM |  | 5 µM | > 100 µM | 60 µM | > 100 µM | 80 µM | 62% | inhibition of metastasis formation ([9]; 50 mg/kg): > 80%; % reduction in lung metastases relative to control ([9]; Intraperitoneal, 25 mg/kg): 76%; % reduction in lung metastases relative to control ([9]; Intraperitoneal, 50 mg/kg): 90%; % reduction in lung metastases relative to control ([9]; Per-oral, 50 mg/kg): 80%; % reduction in lung metastases relative to control ([9]; Per-oral, 150 mg/kg): 86%
6 | O=C(NCCCCCCNS(=O)(=O)c1ccc(Oc2ccccc2)cc1)P(=O)(O)O [Compound 5, 1-[4-Phenoxybenzenesulfonamido]-6-[phosphonoformamido]hexane] | 20 µM | > 100 µM |  | 5 µM | > 100 µM | 80 µM | > 100 µM | > 100 µM | 77% | toxic effects in mice [12]: without any toxic effects; toxicity in mice (text, FIG. 5) [12]: toxic; Toxicity in mice (Table 4) ([12]; ip, 50 mg/kg): Toxic; % reduction in lung metastases relative to control ([9]; Intraperitoneal, 25 mg/kg): 90%; % reduction in lung metastases relative to control ([9]; Per-oral, 50 mg/kg): 50%; % reduction in lung metastases relative to control ([9]; Per-oral, 150 mg/kg): 86%
7 | O=C(NCCCCCCCCNS(=O)(=O)c1ccc(Oc2ccccc2)cc1)P(=O)(O)O [Compound 7] | 17 µM | > 100 µM | >180 min | > 100 µM | > 100 µM | > 100 µM | > 100 µM | > 100 µM |  | 
8 | N[C@H]1CCCC[C@H]1NC(=O)P(=O)(O)O (relative stereo) [YK-162, cis-2-aminocyclohexylcarbamoyl phosphonic acid, reference compound] |  |  | <30 min |  |  |  |  |  | 15% | IC50 [1]: > 100 µM; IC50 [2]: > 100 µM; IC50 [3]: > 100 µM; IC50 [5]: 4 µM; IC50 [6]: > 100 µM; IC50 [7]: > 100 µM; IC50 [8]: 20 µM; period of MMP-2 inhibition ([11]; MMP-2): about 30 minutes
9 | O=C(NCCNCCNS(=O)(=O)c1ccc(Oc2ccccc2)cc1)P(=O)(O)O [Compound 10, N-{2-[2-(4-Phenoxybenzenesulfonylamino)-ethylamino]-ethyl}-carbamoylphosphonic acid] | > 100 µM | > 100 µM | >180 min | 20 µM | > 100 µM |  | > 100 µM |  |  | melting point: 224 to 225 °C
10 | O=C(NCCCNS(=O)(=O)c1ccc(Oc2ccccc2)cc1)P(=O)(O)O [Compound 2, 1-[4-phenoxybenzenesulfonamido]-3-[phosphonoformamido]propane] | > 100 µM | > 100 µM | >180 min | 10 µM | > 100 µM | 25 µM | 35 µM | > 100 µM | 49% | melting point: 165 to 168 °C

Second part, led by results:

Row | IC50 ([1]; read-out: IC50 (μM) on TACE) | IC50 ([3]; read-out: IC50 (μM) on MMP-8) | Duration of inhibitory effect [4] | IC50 ([5]; read-out: IC50 (μM) on MMP-2) | IC50 ([8]; read-out: IC50 (μM) on MMP-9) | Structure (SMILES) | IC50 ([2]; read-out: IC50 (μM) on MMP-13) | IC50 ([6]; read-out: IC50 (μM) on MMP-3) | IC50 ([7]; read-out: IC50 (μM) on MMP-12) | inhibition at 50 µM [10] | further results
11 | > 100 µM | > 100 µM | >180 min | 15 µM | > 100 µM | N[C@@H](CNC(=O)P(=O)(O)O)CNS(=O)(=O)c1ccc(Oc2ccccc2)cc1 [Compound 8S, (S)-N-[2-amino-3-(4-phenoxybenzenesulfonamido)propyl]carbamoylphosphonic acid] | > 100 µM |  | > 100 µM | > 100% | 
12 | > 100 µM | 15 µM | >180 min | 20 µM | > 100 µM | N[C@H](CNC(=O)P(=O)(O)O)CNS(=O)(=O)c1ccc(Oc2ccccc2)cc1 [Compound 8R, (R)-N-[2-amino-3-(4-phenoxybenzenesulfonamido)propyl]carbamoylphosphonic acid] | > 100 µM | > 100 µM | 12 µM | > 100% | 
